Experimental data: a melting point compilation (Tetko et al.; mined from patent text by program, amines drawn as free bases though some values may be those of a salt)

| Structure (SMILES) | melting point |
| --- | --- |
| Cc1cccc(C)c1N(CCCc1cccnc1)C(=O)Cn1ccnc1C | 89 to 90 °C |
| O=S(=O)(C=Cc1ccccc1)On1nnc2ccccc21 | 102 to 103 °C |
| COC(=O)NNC(=O)CC(C)(C)C | 83 to 84.5 °C |
| CCCc1ccc(OCC(C)O)c2c(=O)cc(C(=O)O)oc12 (centres undefined) | 134 to 136 °C |
| OCCc1cn2ccccc2n1 | 120 to 127 °C |
| CCCCOc1c(CNC(=O)OC(C)(C)C)n(CC(C)(C)C)c(=O)c2ccc(C=O)cc12 | 149 to 150 °C |
| CC(C)(C)C(NC(=O)OCc1ccccc1)C(=O)O (centres undefined) | 96 to 99 °C |
| COc1cc(C=C(C(C)=O)C(C)=O)ccc1O | 135 to 137 °C |
| Cc1cc(C)c(-c2n[nH]c(=O)c3ccccc23)c(C)c1 | 259 to 262 °C |
| COC(=O)c1ccccc1S(=O)(=O)NCC(=O)Nc1cc(C)on1 | 153 to 156 °C |
| Nc1cc(C(=O)OC2CCCC2)c(Cl)cc1F | 61 to 62 °C |
| CN(CCCNc1ncc(Cc2cccc(Cl)c2)c(=O)[nH]1)c1ccccn1 | 105 to 107 °C |
| Nc1cc2c(c(C(=O)O)c1)NCCC2 | 207 to 208 °C |
| Cc1cc(C(C#N)=CN(C)C)ccn1 | 126 °C |
| ON=Cc1ccccc1OCc1ccc(Cl)cc1 | 122 to 124 °C |
| CN(CC(=O)[C@H](Cc1ccccc1)NC(=O)NC1CCCCC1)C(=O)N1CCC[C@H]1C(=O)O | 75 to 110 °C |
| COc1ccc(CCNc2cc(-n3cccn3)nc(-c3cccs3)n2)cc1 | 99.6 to 100 °C |
| CCc1nn(C2CCCC2)c2cc(C(=O)O)ccc12 | 153 to 155 °C |
| OC(c1cccc(Br)c1)C1c2ccccc2CCc2ccccc21 (centres undefined) | 93.9 °C |
| O=[N+]([O-])c1cnn(-c2ccc(C(F)(F)F)cc2Cl)c1 | 106 to 109 °C |
| Cc1c(N2C[C@@H](NC(=O)C(F)(F)F)C(C)(C)C2)c(F)c(N)c2c(=O)c(C(=O)O)cn(C3CC3)c12 | 254 to 255 °C |
| CCOC(=O)c1cnn(C)c1C(=O)Nc1ccn2nc(-c3ccccc3)nc2c1 | 242 to 243 °C |
| C=C(C)c1cc(Br)c(Oc2nc(C)nc(N3CCOCC3)n2)c(OC)c1 | 63 to 67 °C |
| Cn1cc(-c2cccc(-n3ncc4cc(C(C)(C)C)cc(F)c4c3=O)c2CO)cc(Nc2ccc(C(C)(C)O)cn2)c1=O | 200 to 205 °C |
| CCCCCCCCCCCCCCCCOCC(CC(CCCCCCCCCCCCCC)C(=O)NCCO)OCc1ccccc1 (centres undefined) | 39 to 40 °C |
| Nc1cc(Oc2cc(N)cc(C(F)(F)F)c2)cc(C(F)(F)F)c1 | 223 to 224 °C |

| Structure (SMILES) | melting point |
| --- | --- |
| CCCc1c(OCCCCOc2ccc(Sc3ccccc3CC(=O)O)cc2)ccc(C(C)=O)c1O | 76 to 78 °C |
| COC(=O)c1ccsc1N/C=C(\C#N)C(=O)OC(C)(C)C | 154 to 157 °C |
| Cc1c(C)c(N2CCN(c3ccc(C(F)(F)F)cc3)CC2)c(C)c2c1OC(C)(C)C2=O | 188 to 190 °C |
| CCOC(=O)C=Cc1ccc(N2CCCC2=O)cc1 | 134 °C |
| CC1(C)CC(N2C(=O)c3ccc(C(=O)O)cc3C2=O)CC(C)(C)N1 | > 225 °C |
| CCCCCCCCCCCCCCCCOCC1OCCCC1=O (centres undefined) | 42 to 43.5 °C |
| COc1ccc(NC(=O)c2c(C)nc3ccccc3c2O)cc1 | 222 °C |
| CNC(=O)c1cc(-c2cccc3nc(Nc4cc(OC)c(OC)c(OC)c4)oc23)cs1 | 260 to 262 °C |
| Cc1cc([N+](=O)[O-])ccc1NC=O | 162 °C |
| Nc1ccc(-c2nc(C(=O)Nc3nccs3)c(-c3ccc(C(F)(F)F)cc3)[nH]2)cc1 | 175 to 177 °C |
| O=C(OCC1CCN(CC2CSc3ccc(F)cc3C2)CC1)c1ccc(F)cc1 (centres undefined) | 113 to 114 °C |
| COc1ccnc(CCc2nc3cc(-c4ccc(S(=O)(=O)N5CCN(c6ccc(C#N)cc6)CC5)cc4)cnc3[nH]2)c1 | 217 to 219 °C |
| Clc1ccc(-c2ccnc(CN3CCC(c4ccc(Cl)cc4)CC3)c2)cc1 | 89 to 91 °C |
| COC(=O)Nc1nc2ccccc2n1C(=O)NC(=O)C(Cl)=C(Cl)Cl | 231 °C |
| CCNC(=S)N1CCN(c2cncc(OC)n2)CC1 | 120 to 122 °C |
| O=C(NC1CCN(CCCOc2ccc3ccc(=O)oc3c2)CC1)c1ccccc1 | 157 to 158 °C |
| O=C(CN1CCC(O)CC1)Nc1cccc2c1C(=O)c1c-2n[nH]c1-c1ccc(N2CCOCC2)cc1 | 245 °C |
| N#Cc1ccc(-c2ccc(SC3SCC(O)C(O)C3O)cc2)cc1 (centres undefined) | 168 °C |
| N#CCOc1nsc2ccc([N+](=O)[O-])cc12 | 123 to 124 °C |
| CCC1(c2ccc(C(O)C(C)(C)C)cc2)OCCO1 (centres undefined) | 52 to 56 °C |
| N#Cc1ccc(NCC(=O)N2CCC(Cc3ccc(F)cc3)CC2)cc1 | 204 to 206 °C |
| CCCCc1nc2c(N)nc3cc(-c4cccnc4)ccc3c2n1CCNC(=O)NC(C)C | 240 to 241 °C |
| CC(C)(C)OC(=O)NN=Cc1ccc(-c2ccccn2)cc1 | 169 to 172 °C |
| O=C(OC1CCN(c2ccc3[nH]c(=O)ccc3c2)CC1)c1ccccc1 | 212 to 215 °C |
| COc1ccc(-c2ccc3c(N4CCOC[C@@H]4C)nc(N4CCOC[C@@H]4C)nc3n2)cc1CO | 202 to 205 °C |
| CCOC(=O)c1c(N2CCC(N(C)C)C2)c2cc(C)ccc2n(Cc2ccccc2)c1=O (centres undefined) | > 40 °C |

| Structure (SMILES) | melting point |
| --- | --- |
| O=C1CCCC2=C1C(c1cccc(Cl)c1)C1=C(CCCC1)N2 (centres undefined) | 249 to 250 °C |
| COC(=O)C(=Cc1ccccc1Cl)c1ccccc1 | 67 to 69 °C |
| CC(C)(C)OC(=O)NCCCCCC(=O)Nc1cccnc1 | 96 to 98 °C |
| Cc1sc2cc(O)ccc2c1C1=C(c2c(C)sc3cc(O)ccc23)C(F)(F)C(F)(F)C1(F)F | 236 to 237 °C |
| CC(C)Nc1cccc2c1C(=O)c1cccc(NC(C)C)c1C2=O | 170 to 172 °C |
| Cc1cc2c(O)cccc2[nH]1 | 168 to 170 °C |
| CC1=C(C(=O)OC(C)(C)C)C(c2ccccc2Cl)C(C(=O)OC(C)(C)C)=C(C)N1 | 194 to 196 °C |
| Nc1nc(F)nc2nc[nH]c12 | > 300 °C |
| CC(=O)Nc1ccc(S(=O)(=O)Nc2ccn(C3CCCCC3)c(=O)n2)cc1 | 219 to 234 °C |
| CC(C)(C)N(O)Cc1ccc(CN(O)C(C)(C)C)cc1 | 137 to 138 °C |
| COC(=O)c1cc(SC(=O)N(C)C)cc(SC(=O)N(C)C)c1 | 128 to 130 °C |
| COCc1cc(NCc2ccccc2C)c2ccccc2n1 | 194 to 195 °C |
| COc1ccc(C2(C#Cc3ccc(N4CN=C(C)O4)s3)CCC(=O)CC2)cc1OC1CCCC1 | 94 to 95 °C |
| Cc1oc(C(N)=O)c(C)c1-c1nc2ccc(Oc3ccccc3)cc2[nH]1 | 248 to 251 °C |
| CC(C)(C)C(=O)Oc1cc2c(s1)CCN(C(C(=O)C1CC1)c1ccccc1F)C2 (centres undefined) | 91 to 94 °C |
| CC(C)(C)OC(=O)c1ccc(C=Cc2cnc(N)c(C#N)c2)cc1 | 190 to 195 °C |
| O=c1c2c(oc3c1nnn3Cc1ccccc1)CSC2 | 210 to 212 °C |
| Cc1nn(-c2ccc([N+](=O)[O-])cc2F)c(=O)n1C(F)F | 72 to 77 °C |
| COC(=O)c1cc2c(nc1C)C(CO)CCCC2 (centres undefined) | 55 to 56 °C |
| CCN1CCC(c2ccccc2)=C(C(=O)OCC2CCCCC2)C1 | 94 to 97 °C |
| c1ccc(-c2ccc3nc(COc4ccc(CCCn5ccnc5)cc4)cn3c2)cc1 | 106 to 107 °C |
| OCC12CCCN(CC1)C2 (centres undefined) | 44 to 47 °C |
| ON=C(c1ccccc1F)c1ccc(O)c(Cl)c1Cl | 168 to 175 °C |
| CC1Nc2ccc(-c3ccc(F)c(Cl)c3)cc2C(C)(C)O1 (centres undefined) | 173 to 175 °C |
| O=[N+]([O-])c1ccc(Cl)nc1Nc1ccccc1 | 95 to 98 °C |
| c1ccc(-c2ccnc(-c3ccc4cc[nH]c4c3)n2)cc1 | 160 °C |

| Structure (SMILES) | melting point |
| --- | --- |
| O=S(=O)(c1ccccc1)C1CCC(COc2ccc(F)cc2)O1 (racemic) | 102 to 104 °C |
| O=C(c1ccc(N2CCOCC2)cc1)c1ccc([N+](=O)[O-])cc1 | 173 to 175 °C |
| Cc1ccc(C)c2c1Cc1c(O)cccc1C2=O | 172 to 178 °C |
| Oc1ccc2nc(-c3ccc(Cl)cc3)oc2c1 | 273 to 274 °C |
| C=CCNc1cnc(-c2ccccc2)c(-c2ccccc2)n1 | 97 to 100 °C |
| Cc1ccc(Oc2ccc(NC(=O)Nc3cc(C(C)(C)C)n[nH]3)cc2)cc1 | 204 °C |
| CC(=O)N(C[C@H]1CN(c2ccc(N3CCC4(CC3)OCCO4)c(F)c2)C(=O)O1)C(C)=O | 200 to 202 °C |
| CC(C)OC(=O)c1cccc(C(O)(c2ccc3c(c2)c(-c2cccc(Cl)c2)cc(=O)n3C)c2cncn2C)c1 (centres undefined) | 150 °C |
| CCCCN(CCCC)C(=O)Nc1ccccc1 | 82 °C |
| CN(C)c1cccc(CC(=O)C(F)(F)c2ccccc2)c1 | 76 to 77 °C |
| NC(=O)c1nccn1C1Cc2cc(Br)ccc2C1=O (centres undefined) | 240 °C |
| O=C(O)CC1CCc2c(cccc2OC2CCCCO2)C1 (centres undefined) | 104 to 109 °C |
| CCOC(=S)Nc1cccc(Cl)c1 | 78 to 79 °C |
| COc1c(C)c(N2CCN(c3ccc(C(F)(F)F)cc3)CC2)c(C)c2c1OC(C)(C)C2 | 186 to 187 °C |
| C#CCNc1c(-c2c(F)cc(F)cc2F)c(Cl)nc2ncnn12 | 141 °C |
| COc1cccc2c(C)c3n(c(=O)c12)CCCS3(=O)=O | 198 to 199 °C |
| CN(C)C=NC(=O)c1cnn2c(-c3ccccc3)ccnc12 | 198 to 202 °C |
| O=C(NNC(=O)C(Cl)(Cl)Cl)c1cccc(Cl)c1 | 143 to 144 °C |
| CCNC1CCc2[nH]c3ccccc3c2C1 (centres undefined) | 128 to 129 °C |
| N#Cc1ccc([C@H]2CC[C@H](C=C(F)F)CC2)cc1 | 59.3 °C |
| COc1ccc2c(-c3cccc(F)c3F)noc2c1Cl | 184 to 189 °C |
| CCC=C1Cc2c3c(c(C)c(C)c2C1=O)OC(C(=O)O)C3 (centres undefined) | 229 °C |
| Cn1c(=O)c(S(C)(=O)=O)c(O)c2ccccc21 | 169 to 172 °C |
| CSc1cc(C)nc(SC)c1NC(=O)CN1CCN(CCSc2nc3ccccc3[nH]2)CC1 | 96 to 97 °C |
| CCCCCCCCCCCCCCCCCCN1C(=O)CC(c2cc(C(C)(C)C)c(O)c(C(C)(C)C)c2)C1=O (centres undefined) | 70 to 73 °C |
| COC(=O)CCC(=O)Nc1cccnc1 | 78 to 79 °C |
